Experimental data as given in BindingDB's records for doi:10.1021/jm00019a005 (Warner-Lambert, 1995).

Target: Type-2 angiotensin II receptor (Oryctolagus cuniculus)
Assay: The compound was tested for binding affinity against Angiotensin II receptor, type 2 from rabbit uterus membrane by using [125I]AngII as radioligand

IC50	Compound
0.789 µM	CCCCc1ncc(C=C2C(=O)NC(=O)N2CCCC)n1Cc1ccc(-c2ccccc2-c2nnn[nH]2)cc1 [1-Butyl-5-[1-{2-butyl-3-[2'-(1H-tetrazol-5-yl)-biphenyl-4-ylmethyl]-3H-imidazol-4-yl}-meth-(Z)-ylidene]-imidazolidine-2,4-dione]
5.87 µM	CCCCc1ncc(/C=C2/C(=O)N(CCCC)C(=O)N2CCCC)n1Cc1ccc(C(=O)OC)cc1 [4-{2-Butyl-5-[1,3-dibutyl-2,5-dioxo-imidazolidin-(4Z)-ylidenemethyl]-imidazol-1-ylmethyl}-benzoic acid methyl ester]
